Laboratory results taken from ChEMBL document CHEMBL1201862, “PubChem BioAssay data set” (2004).
Active and inactive are the calls of the source.

Experiments:
[1] = biological target: T1, Short transient receptor potential channel 4 (Mus musculus, UniProt Q9QUQ5); assay: mouse TRPC4 channel inhibitors, dose response, cell-based, HEK293 TRPC4/mu-opioid, Fluo-4 calcium (AID 434942); type: functional;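 also: potency of inhibitors blocking the TRPC4 calcium response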
T1 sequence (Q9QUQ5 whole entry): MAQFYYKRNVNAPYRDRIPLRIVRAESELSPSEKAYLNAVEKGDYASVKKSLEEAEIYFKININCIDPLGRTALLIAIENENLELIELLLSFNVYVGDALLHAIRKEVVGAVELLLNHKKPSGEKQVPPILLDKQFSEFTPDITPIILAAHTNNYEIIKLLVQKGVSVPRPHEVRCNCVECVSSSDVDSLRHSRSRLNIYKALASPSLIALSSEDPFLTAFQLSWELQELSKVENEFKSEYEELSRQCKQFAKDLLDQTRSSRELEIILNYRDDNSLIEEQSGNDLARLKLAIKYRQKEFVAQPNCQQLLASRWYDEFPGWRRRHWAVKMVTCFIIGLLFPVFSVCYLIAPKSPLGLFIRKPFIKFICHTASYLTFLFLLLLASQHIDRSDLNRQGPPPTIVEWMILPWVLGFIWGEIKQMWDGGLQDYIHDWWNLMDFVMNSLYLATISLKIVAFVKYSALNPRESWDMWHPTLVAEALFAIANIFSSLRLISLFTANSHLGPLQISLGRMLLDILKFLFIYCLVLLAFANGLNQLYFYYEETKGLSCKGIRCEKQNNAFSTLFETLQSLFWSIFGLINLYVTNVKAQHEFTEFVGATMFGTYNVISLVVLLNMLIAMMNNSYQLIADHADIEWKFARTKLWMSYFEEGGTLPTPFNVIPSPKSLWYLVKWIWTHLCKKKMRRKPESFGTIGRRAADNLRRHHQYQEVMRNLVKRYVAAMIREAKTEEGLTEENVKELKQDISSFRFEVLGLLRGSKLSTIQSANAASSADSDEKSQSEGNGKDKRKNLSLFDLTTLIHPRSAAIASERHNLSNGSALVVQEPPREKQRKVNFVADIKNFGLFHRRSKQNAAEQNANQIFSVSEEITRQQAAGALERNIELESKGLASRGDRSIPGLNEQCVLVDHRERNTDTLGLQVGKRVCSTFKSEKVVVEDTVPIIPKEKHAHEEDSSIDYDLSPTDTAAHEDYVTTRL

[2] = cytotoxicity in HEK-293T cells, dose response, cytotoxicity control for TCR NF-kB inhibitor project, luminescence, T-cell screen hits (AID 489026); type: functional, cell-based;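 also: cells exposed to compound about 14 hours before the viability readout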
[3] = biological target: T2, DNA repair and recombination protein RAD54-like (Homo sapiens, UniProt Q92698); assay: inhibitors of human RAD54 branch migration, confirmation, biochemical, fluorescence, cherry-picked samples, dose series (AID 651657); type: functional
T2 sequence (Q92698 whole entry): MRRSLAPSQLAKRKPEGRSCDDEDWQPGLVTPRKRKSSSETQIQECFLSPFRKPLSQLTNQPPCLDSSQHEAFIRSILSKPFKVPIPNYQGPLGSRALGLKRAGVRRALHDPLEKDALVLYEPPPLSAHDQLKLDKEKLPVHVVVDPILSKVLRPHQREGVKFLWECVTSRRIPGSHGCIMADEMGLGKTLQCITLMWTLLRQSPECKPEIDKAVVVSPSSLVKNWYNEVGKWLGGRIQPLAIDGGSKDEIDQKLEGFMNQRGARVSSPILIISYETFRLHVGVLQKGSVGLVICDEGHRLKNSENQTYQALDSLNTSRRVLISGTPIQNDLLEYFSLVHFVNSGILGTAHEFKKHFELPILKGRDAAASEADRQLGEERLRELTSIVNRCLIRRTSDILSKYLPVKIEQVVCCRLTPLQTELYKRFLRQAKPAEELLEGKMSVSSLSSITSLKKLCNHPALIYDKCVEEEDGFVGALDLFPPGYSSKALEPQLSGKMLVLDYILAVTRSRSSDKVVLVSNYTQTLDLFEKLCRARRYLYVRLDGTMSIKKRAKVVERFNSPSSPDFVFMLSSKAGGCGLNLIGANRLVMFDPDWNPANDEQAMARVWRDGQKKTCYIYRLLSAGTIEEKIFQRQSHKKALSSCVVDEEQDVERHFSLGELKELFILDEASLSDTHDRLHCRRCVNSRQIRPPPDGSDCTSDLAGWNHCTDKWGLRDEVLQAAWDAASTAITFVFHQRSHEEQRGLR

[4] = inhibitors of Vif binding to APOBEC3G peptide, primary screen, biochemical, TR-FRET, GST-Vif 1-94, biotin-A3G peptide, dose response retest (AID 1117319); type: functional;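 also: TR-FRET signal of purified GST-Vif binding a biotinylated A3G peptide; inhibitors lower the FRET signal by blocking Vif and A3G binding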
INS1 = assay: beta cell apoptosis inhibitors, cytokine rescue, dose response, luminescence, retest (AID 449756); type: functional, cell-based; settings: Rattus norvegicus, INS1;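 also: cell death triggered by IL-1 beta plus TNF-alpha plus IFN-gamma mixture; protective hits raise ATP signal compared with cytokine alone wells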
[5] = HepG2 cell cytotoxicity, dose response, cytotoxicity control for Shn3 inhibitor project, CellTiter-Glo, cherry-picked (AID 624134); type: functional, cell-based
[6] = control 3'UTR Renilla luciferase suppression, dose response, counter-screen for Shn3 inhibitor project, cell-based, Clone20-Shn3RL, cherry-picked (AID 624133); type: functional
[7] = Shn3 3'UTR reporter inhibitors, dose response, cell-based, Clone20 osteoblasts, firefly luciferase, cherry-picked (AID 624132); type: functional;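 also: firefly luciferase luminescence from reporter carrying the Shn3 3'UTR in osteoblasts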
[8] = biological target: T3, Microphthalmia-associated transcription factor (Homo sapiens, UniProt O75030); assay: TRPM1 promoter luciferase signal decrease, dose response, MITF inhibitor project, cell-based, SK-MEL-5, cherry-picked, set 3 (AID 493073); type: functional
T3 sequence (O75030 whole entry): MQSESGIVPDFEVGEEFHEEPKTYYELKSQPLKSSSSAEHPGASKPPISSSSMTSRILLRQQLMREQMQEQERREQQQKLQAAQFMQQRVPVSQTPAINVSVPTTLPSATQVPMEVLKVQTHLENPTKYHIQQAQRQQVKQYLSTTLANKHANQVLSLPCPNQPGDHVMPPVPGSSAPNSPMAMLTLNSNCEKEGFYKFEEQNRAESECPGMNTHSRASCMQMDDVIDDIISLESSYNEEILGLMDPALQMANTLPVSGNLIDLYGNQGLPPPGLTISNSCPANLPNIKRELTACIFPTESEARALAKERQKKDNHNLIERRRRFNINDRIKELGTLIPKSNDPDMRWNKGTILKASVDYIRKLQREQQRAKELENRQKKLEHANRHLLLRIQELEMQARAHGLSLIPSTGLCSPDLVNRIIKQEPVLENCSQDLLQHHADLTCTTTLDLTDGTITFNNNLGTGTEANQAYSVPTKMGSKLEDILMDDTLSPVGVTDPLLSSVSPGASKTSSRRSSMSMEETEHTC

[9] = HEK293T cytotoxicity, dose response, cytotoxicity control for miR-122 modulator project, cell-based, inhibitor set, cherry-pick, set 2 (AID 720697); type: functional

O=C(CN1CCCCCC1)N1c2ccccc2Sc2ccccc21
EC50 [1]: 1.68 µM (active)

c1ccc(Cn2c(NCc3ccco3)nc3ccccc32)cc1
EC50 [1]: 0.596 µM (active)

COc1cc(C2=NOC(C(=O)NCc3ccc(F)cc3)C2)cc(OC)c1OC (stereo not given)
IC50 [2]: > 80 µM (inactive)

Cc1ccc2oc(=O)c3cc(C(=O)NCCCN4C(C)CCCC4C)sc3c2c1 (stereo not given)
AC50 [3]: 100 µM (inactive)

NCCOc1ccccc1Cc1ccccc1
IC50 [4]: > 100 µM (active)

COC(=O)Nc1sc2c(c1C(=O)NCc1ccco1)CCCC2
IC50 [4]: > 100 µM (active)

COc1ccc(CC(=O)Nc2nc(-c3ccc(F)c(F)c3)cs2)cc1OC
AC50 (INS1): 6.65 µM (active) | IC50 [2]: 51.3 µM (inactive)

COc1ccc(CN(C(=O)c2snc(C(N)=O)c2N)C(CC(C)C)C(=O)NC2CCCCC2)cc1 (stereo not given)
EC50 [1]: 1.33 µM (active)

O=C(CCN1C(=O)c2ccccc2C1=O)NCc1ccco1
IC50 [4]: > 100 µM (active)

CCn1c(=N)c(C(=O)NC)cc2c(=O)n3cccc(C)c3nc21
AC50 [3]: 19.9 µM (active)

O=C(c1cnn2cccnc12)N1CCN(Cc2ccc3c(c2)OCO3)CC1
IC50 [4]: > 100 µM (active)

Cc1ccc(N(C)S(=O)(=O)c2ccc(-c3cnc(C4CC4)o3)cc2)cc1
IC50 [2]: > 80 µM (inactive)

O=C1CCCN2N=C(SCC(=O)Nc3cccc(C(F)(F)F)c3)SC2=N1
AC50 [5]: 5.46 µM (active) | AC50 [6]: 2.95 µM (active) | AC50 [7]: 4.37 µM (active)

Cc1ccc(C(O)(c2ccc(C)c(C)c2)C2CN3CCC2CC3)cc1C (stereo not given)
AC50 [8]: 10.1 µM (active)

Cc1cccc(NS(=O)(=O)c2ccc(-c3cnc(C4CC4)o3)cc2)c1
IC50 [2]: 67 µM (inactive)

COc1cc2nc(C3CCC3)n(NC(=O)C3CCCC(OC)C3)c(=O)c2cc1OC (stereo not given)
AC50 [9]: 6.2 µM (active)

CCOC(=O)c1[nH]c(C)c(C(=O)OCC(=O)NC(C)c2ccc(F)cc2)c1C (stereo not given)
IC50 [2]: > 80 µM (inactive)
